# Measured values taken from US20260048118A1, “COMPOSITIONS AND METHODS FOR ENHANCING TRIPLEX AND NUCLEASE-BASED GENE EDITING” (Yale University, priority 2018, published 2026).
# Assays:
# [1] = tested on: K562 cells carrying a BFP/GFP reporter gene; assay: CRISPR/Cas9 D10A nickase gene editing in K562 BFP/GFP reporter cells, flow cytometry; type: cell-based, human; settings: full-length 3E10 1.5 mg/mL=10 μM, RNP plus donor DNA nucleofected, two days
# Protocol: K562 cells carrying a BFP/GFP reporter gene (Richardson, et al., Nat. Biotechnol., 34 (3): 339-44 (2016)) were transfected with CRISPR/Cas9 WT or CRISPR/Cas9 D10A nickase variant enzymes plus a guide RNA targeting the mutation site in GFP. Some samples were also treated with full-length 3E10, at a concentration of 1.5 mg/mL=10 μM.
# Cas9 protein and guide RNAs were introduced by nucleofection as a ribonucleoprotein (RNP) complex. 45 pmol of Cas9 protein (D10A nickase variant or WT, both obtained from PNA Bio) with 45 pmol of sgRNA (synthesized with Invitrogen GeneArt kit) in Cas9 nuclease buffer (NEB), were pre-incubated for 5 minutes at room temperature.
# Cells were nucleofected with the RNP complex and donor DNA having the sequence:
# The frequency of gene editing was measured two days later by flow cytometry for green fluorescence.
# [2] = tested on: bone marrow cells of Townes mice (codon 6 mutation in the beta globin gene); assay: In vivo PNA/DNA editing in Townes mice, bone marrow cells analysed by ddPCR; design: species or system mouse; settings: 4 doses of 2 mg nanoparticles over 2 weeks, analysed after two months; 3E10 line: 1 mg 3E10 i.p. 3 h prior to each dose
# Protocol: To further validate whether 3E10 can boost gene editing in vivo, the Townes model (the same sickle cell transgenic mouse model used in Examples 3 and 4) was used. Mice were injected with a total of 4 doses of 2 mg of nanoparticles containing PNA/donor DNA over the course of 2 weeks, with the goal of correcting the codon 6 mutation in the beta globin gene. Three hours prior to each nanoparticle administration, mice were injected with 1 mg of 3E10 intraperitoneally (i.p). After two months, bone marrow cells were harvested and analyzed for editing via digital droplet PCR (ddPCR). Injections were performed […] every 3 days over the course of 2 weeks as described above.
# [3] = tested on: CD117+ cells from bone marrow and spleen of β-globin/GFP transgenic mice; assay: In vivo gene editing in CD117+ cells of β-globin/GFP transgenic mice, GFP flow cytometry; design: species or system mouse; settings: 0.5 mg 3E10 i.p. 3 h before 2 mg PNA/DNA nanoparticles i.v.; harvested after eight days
# Protocol: To evaluate the effects of 3E10 on PNA/DNA directed gene editing in vivo, the same β-globin/GFP transgenic mouse model described above was used. Three hours prior to treatment with nanoparticles, mice were injected with 0.5 mg of 3E10 intraperitoneally (i.p.). Either the full-length 3E10 or a single-chain variable fragment (scFv) were used. Two mg of nanoparticles containing PNA/Donor DNA were then injected intravenously. After eight days, bone marrow and spleens were harvested and CD117+ cells (C-KIT+, a marker of hematopoietic stem and progenitor cells) from these tissues were isolated using a Hematopoietic Progenitor Stem Cell Enrichment Set (BD Bioscience). Following enrichment, cells were analyzed via flow cytometry for GFP expression.
# [4] = tested on: SC-1 cells, a human lymphoblastoid cell line that carries the SCD mutation; assay: Beta globin editing in SC-1 cells, ddPCR; type: cell-based; settings: 2 mg nanoparticles per well, 48 h, 3E10 line: 3E10 prior to nanoparticles
# Protocol: SC-1 cells, a human lymphoblastoid cell line that carries the SCD mutation, were treated with 2 mg of nanoparticles per well with or without 3E10. After 48 hours, the cells were washed prior to genomic DNA isolation (SV Wizard, Promega). Freshly isolated genomic DNA was analyzed by droplet digital PCR (ddPCR) for editing frequencies.
# [5] = tested on: bone marrow cells from Townes mice (beta globin gene, SCD mutation); assay: PNA/DNA editing of beta globin SCD mutation in bone marrow cells from Townes mice, ddPCR; type: cell-based, mouse; settings: 2 mg nanoparticles per well, 48 h, 3E10 line: full length 3E10 plus nanoparticles
# Protocol: Bone marrow cells were isolated from the same transgenic mouse model of sickle cell disease described above in Example 3 (Townes model, Jackson Laboratory). Cells were treated with full length 3E10 plus 2 mg of nanoparticles per well. The nanoparticles contained the donor DNA plus tcPNA2A, designed to bind to and correct the beta globin gene at the site of the SCD mutation (A:T to T:A).
# After 48 hours, the cells were washed prior to genomic DNA isolation (SV Wizard, Promega). Freshly isolated genomic DNA was analyzed by droplet digital PCR (ddPCR) to quantify gene editing frequencies.
substance,measurement,setting,value
3E10: cell-penetrating monoclonal anti-DNA antibody that binds to and inhibits RAD51; produced by ATCC No. PTA 2439 hybridoma,effect on gene editing by nickase Cas9 D10A (green fluorescence),[1],substantially boosted gene editing
same,average editing frequency in bone marrow cells (ddPCR),[2],2.1%
same,gene editing in bone marrow CD117+ cells vs nanoparticles alone,[3],higher levels of gene editing
same,gene editing in spleen CD117+ cells vs nanoparticles alone,[3],higher levels of gene editing
same,gene editing frequency (ddPCR),[4],17%
same,gene editing frequency (ddPCR),[5],more than 8%
